Laboratory results: patent publication US4966900A, “Cephalosporin β-lactam compound and medicinal composition” (priority 1986, dated 1990)
Values after ≈ are worked out from the molar mass of the structure shown. Where a name gives a salt, the structure may show the parent alone.

How the values were obtained:
Assay in all cases: MIC
P. cepacia OF189 = tested on: P. cepacia OF189
S. aureus Smith = tested on: S. aureus Smith
E. coli ML4707 = tested on: E. coli ML4707
C. freundii GN7391 = tested on: C. freundii GN7391
S. marcescens GN10857 = tested on: S. marcescens GN10857
E. cloacae 908RN = details: Enterobacter cloacae
P. aeruginosa 5D58-1 = tested on: P. aeruginosa 5D58-1
K. pneumoniae 4at521 = tested on: K. pneumoniae 4at521
P. aeruginosa GN10362 = details: Pseudomonas aeruginosa, GN10362
E. colacae GN7471 = tested on: E. colacae GN7471
S. aureus IAA498 = assay type: cell-based; details: Staphylococcus aureus
Experimental: (§1) The minimum inhibition concentrations (MIC) of the compounds obtained in the respective examples described above were measured according to the standard method of Japanese Chemotherapy Association.

P. maltophilia OF247 = details: Stenotrophomonas maltophilia
P. aeruginosa 4au542 = tested on: P. aeruginosa 4au542
E. coli GN5482 = tested on: E. coli GN5482
P. vulgaris GN7919 = tested on: P. vulgaris GN7919
C. freundii 1U589 = tested on: C. freundii 1U589
C. freundii 1U692 = tested on: C. freundii 1U692
C. freundii 5D60-1 = tested on: C. freundii 5D60-1
E. cloacae 1V25 = details: Enterobacter cloacae
E. cloacae 5D52-2 = details: Enterobacter cloacae, 5D522
E. cloacae 5D63-2 = details: Enterobacter cloacae, 5D632
C. freundii 1R523 = details: Citrobacter freundii, 1R523
C. freundii 1R527 = details: Citrobacter freundii, 1R527
E. cloacae 1Y247 = assay type: cell-based; details: Enterobacter cloacae, Table 6, read-out: MIC
Experimental: as §1

C. freundii 1R524 = details: Citrobacter freundii, 1R524
C. freundii 1R526 = details: Citrobacter freundii, 1R526
[1] = Burkholderia cepacia, OF189, P. cepacia OF189, Table 5
[2] = Escherichia coli, ML4707, E. coli ML4707, Table 5
[3] = Citrobacter freundii, GN7391, C. freundii GN7391, Table 5
[4] = Serratia marcescens, GN10857, S. marcescens GN10857, Table 5
[5] = Pseudomonas aeruginosa, 5D581, P. aeruginosa 5D58-1, Table 5
[6] = Pseudomonas aeruginosa, 4AU542, P. aeruginosa 4au542, Table 5
[7] = Escherichia coli, GN5482, E. coli GN5482, Table 5
[8] = Citrobacter freundii, GN7391, C. freundii GN7391, Table 6

Compound | MIC (P. cepacia OF189; [1]) [µg/mL] | MIC (S. aureus Smith; Staphylococcus aureus, Table 5) [µg/mL] | MIC (E. coli ML4707; [2]) [µg/mL] | MIC (C. freundii GN7391; [3]) [µg/mL] | MIC (S. marcescens GN10857; [4]) [µg/mL] | MIC (E. cloacae 908RN; E. colacae 908RN, Table 5) [µg/mL] | MIC (P. aeruginosa 5D58-1; [5]) [µg/mL] | MIC (K. pneumoniae 4at521; Klebsiella pneumoniae, 4AT521) [µg/mL] | MIC (P. aeruginosa GN10362) [µg/mL] | MIC (E. colacae GN7471; Table 5) [µg/mL] | MIC (S. aureus IAA498; Table 5) [µg/mL] | MIC (P. maltophilia OF247; Table 5) [µg/mL] | MIC (P. aeruginosa 4au542; [6]) [µg/mL] | MIC (E. coli GN5482; [7]) [µg/mL] | MIC (P. vulgaris GN7919; Proteus vulgaris, GN7919) [µg/mL] | MIC (C. freundii 1U589; Citrobacter freundii, 1U589) [µg/mL] | MIC (C. freundii 1U692; Citrobacter freundii, 1U692) [µg/mL] | MIC (C. freundii GN7391; [8]) [µg/mL] | MIC (C. freundii 5D60-1; Citrobacter freundii, 5D601) [µg/mL] | MIC (E. cloacae 908RN; E. cloacae 908RN, Table 6) [µg/mL] | also measured
CC(C)(ON=C(C(=O)NC1C(=O)N2C(C(=O)O)=C(CSc3ccnc4ncnn34)CSC12)c1csc(N)n1)C(=O)NNC(=O)c1ccc(O)c(O)c1 (stereo not shown) [Example 38, 7-{2-[2-Amino-1,3-thiazol-4-yl]-2-[1-(3-(3,4-dihydroxybenzoyl)carbazoyl)-1-methylethoxyimino]acetamide}-3-[(s-triazolo[1,5-a]pyrimidin-7-yl)thiomethyl]-3-cephem-4-carboxylic acid.hydrochloride] | 0.025 | 1.56 | 0.012 | 25 | 0.39 | 25 | 0.39 | 0.012 | 0.1 | 3.13 | 3.13 | 0.78 | 0.1 | 0.025 | 1.56 |  |  |  |  |  | 
CC(C)(ON=C(C(=O)NC1C(=O)N2C(C(=O)O)=C(CSc3c4c(nc5ncnn35)CCC4)CSC12)c1csc(N)n1)C(=O)NNC(=O)c1ccc(O)c(O)c1 (stereo not shown) [Example 36] | 0.012 (≈ 0.0148 µM) | 6.25 (≈ 7.72 µM) | 0.012 (≈ 0.0148 µM) | 3.13 (≈ 3.86 µM) | 0.39 (≈ 0.482 µM) | 3.13 (≈ 3.86 µM) | 0.78 (≈ 0.963 µM) | 0.012 (≈ 0.0148 µM) | 0.2 (≈ 0.247 µM) | 3.13 (≈ 3.86 µM) | 12.5 (≈ 15.4 µM) | 0.2 (≈ 0.247 µM) | 0.39 (≈ 0.482 µM) | 0.012 (≈ 0.0148 µM) | 0.78 (≈ 0.963 µM) | 0.39 (≈ 0.482 µM) | 0.39 (≈ 0.482 µM) | 6.25 (≈ 7.72 µM) | 1.56 (≈ 1.93 µM) | 12.5 (≈ 15.4 µM) | MIC (E. cloacae 1V25): 12.5 µg/mL (≈ 15.4 µM); MIC (E. cloacae 5D52-2): 0.2 µg/mL (≈ 0.247 µM); MIC (E. cloacae 5D63-2): 0.39 µg/mL (≈ 0.482 µM); MIC (C. freundii 1R523): 0.2 µg/mL (≈ 0.247 µM); MIC (C. freundii 1R527): 0.2 µg/mL (≈ 0.247 µM); MIC (E. cloacae 1Y247): 12.5 µg/mL (≈ 15.4 µM); MIC (C. freundii 1R524): 0.2 µg/mL (≈ 0.247 µM); MIC (C. freundii 1R526): 0.2 µg/mL (≈ 0.247 µM)
CC(C)(ON=C(C(=O)NC1C(=O)N2C(C(=O)O)=C(CSc3c4c(nc5nc(C(=O)O)nn35)CCC4)CSC12)c1csc(N)n1)C(=O)NNC(=O)c1ccc(O)c(O)c1 (stereo not shown) [Example 33, 7-{2-[2-amino-1,3-thiazol-4-yl]-2-[1-(3-(3,4-dihydroxybenzoyl)carbazoyl)-1-methylethoxyimino]acetamide}-3-[(2-carboxy-6,7-dihydro-5H-cyclopenta[f]-s-triazolo[1,5-a]pyrimidin-8-yl)thiomethyl]-3-cephem-4-carboxylic acid.hydrochloride] | < 0.006 | 25 | < 0.006 | 0.39 | 0.05 | 0.2 | 0.2 | < 0.006 | 0.05 | 0.39 | 25 | 0.1 | 0.2 | < 0.006 | 0.2 | 0.05 | 0.05 | 0.78 | 0.2 | 0.2 | MIC (E. cloacae 1V25): 1.56 µg/mL; MIC (E. cloacae 5D52-2): 0.1 µg/mL; MIC (E. cloacae 5D63-2): 0.1 µg/mL; MIC (C. freundii 1R523): 0.05 µg/mL; MIC (C. freundii 1R527): 0.025 µg/mL; MIC (E. cloacae 1Y247): 1.56 µg/mL; MIC (C. freundii 1R524): 0.025 µg/mL; MIC (C. freundii 1R526): 0.025 µg/mL
cephazoline [CAZ, reference compound] |  |  |  |  |  |  |  |  |  | 3.13 |  |  |  |  |  |  |  |  |  |  | MIC (P. cepacia OF189; P. cepacia OF189, Table 5): 3.13 µg/mL; MIC (C. freundii 1U589; C. freundii 1U589, Table 6): 100 µg/mL; MIC (C. freundii 1U589; C. freundii 1U589, Table 8): 100 µg/mL; MIC (C. freundii 1U692; C. freundii 1U692, Table 6): 100 µg/mL; MIC (C. freundii 1U692; C. freundii 1U692, Table 8): 50.000 µg/mL; MIC (S. aureus Smith; Table 5): 6.25 µg/mL; MIC (E. coli ML4707; E. coli ML4707, Table 5): 0.05 µg/mL; MIC (C. freundii GN7391; C. freundii GN7391, Table 5): > 100.00 µg/mL; MIC (C. freundii GN7391; C. freundii GN7391, Table 6): > 100 µg/mL; MIC (C. freundii 5D60-1; C. freundii 5D60-1, Table 6): > 100 µg/mL; MIC (C. freundii 5D60-1; C. freundii 5D60-1, Table 8): > 100 µg/mL; MIC (S. marcescens GN10857; S. marcescens GN10857, Table 5): 1.56 µg/mL; MIC (P. aeruginosa 5D58-1; P. aeruginosa 5D58-1, Table 5): 0.78 µg/mL; MIC (K. pneumoniae 4at521; K. pneumoniae 4at521, Table 5): 0.10 µg/mL; MIC (P. aeruginosa 4au542; P. aeruginosa 4au542, Table 5): 1.56 µg/mL; MIC (E. coli GN5482; E. coli GN5482, Table 5): 0.78 µg/mL; MIC (P. vulgaris GN7919; P. vulgaris Gn7919, Table 5): 1.56 µg/mL
Cc1cc(SCC2=C(C(=O)O)N3C(=O)C(NC(=O)C(=NOC(C)(C)C(=O)NNC(=O)c4ccc(O)c(O)c4)c4csc(N)n4)[C@H]3SC2)n2nc(C(F)(F)F)nc2n1 (stereo partly shown) [Example 55, 7-{2-[2-Amino-1,3-thiazol-4-yl]-2-[1-(3-(3,4-dihydroxybenzoyl)carbazoyl)-1-methylethoxyimino]acetamido}-3-[(5-methyl-2-trifluoromethyl-s-triazolo[1,5-a]pyrimidin-7-yl)-thiomethyl]-3-cephem-4-carboxylic acid] |  |  |  |  |  |  |  | 0.025 (≈ 0.0293 µM) | 0.39 (≈ 0.458 µM) |  |  |  |  |  | 1.56 (≈ 1.83 µM) |  |  |  |  |  | MIC (P. cepacia OF189; Burkholderia cepacia, OF189, P. cepacia OF189, Table 7): 0.05 µg/mL (≈ 0.0587 µM); MIC (S. aureus Smith; Staphylococcus aureus, Table 7): 6.25 µg/mL (≈ 7.34 µM); MIC (E. coli ML4707; Escherichia coli, ML4707, E. coli ML4707, Table 7): 0.05 µg/mL (≈ 0.0587 µM); MIC (C. freundii GN7391; Citrobacter freundii, GN7391, C. freundii GN7391, Table 7): 6.25 µg/mL (≈ 7.34 µM); MIC (S. marcescens GN10857; Serratia marcescens, GN10857, S. marcescens GN10857, Table 7): 1.56 µg/mL (≈ 1.83 µM); MIC (E. cloacae 908RN; E. colacae 908RN, Table 7): 12.5 µg/mL (≈ 14.7 µM); MIC (P. aeruginosa 5D58-1; Pseudomonas aeruginosa, 5D581, P. aeruginosa 5D58-1, Table 7): 0.39 µg/mL (≈ 0.458 µM); MIC (E. colacae GN7471; Table 7): 25 µg/mL (≈ 29.3 µM); MIC (S. aureus IAA498; Table 7): 6.25 µg/mL (≈ 7.34 µM); MIC (P. maltophilia OF247; Table 7): 1.56 µg/mL (≈ 1.83 µM); MIC (P. aeruginosa 4au542; Pseudomonas aeruginosa, 4AU542, P. aeruginosa 4au542, Table 7): 0.39 µg/mL (≈ 0.458 µM); MIC (E. coli GN5482; Escherichia coli, GN5482, E. coli GN5482, Table 7): 0.025 µg/mL (≈ 0.0293 µM)
Cc1nc2ncnn2c(SCC2=C(C(=O)O)N3C(=O)C(NC(=O)C(=NOC(C)(C)C(=O)NNC(=O)c4ccc(O)c(O)c4)c4csc(N)n4)C3SC2)c1C (stereo not shown) [Example 39] | < 0.006 | 12.5 (≈ 15.7 µM) | < 0.006 | 3.13 (≈ 3.92 µM) | 0.2 (≈ 0.251 µM) | 1.56 (≈ 1.96 µM) | 0.78 (≈ 0.978 µM) | 0.012 (≈ 0.015 µM) | 0.2 (≈ 0.251 µM) | 1.56 (≈ 1.96 µM) | 12.5 (≈ 15.7 µM) | 0.2 (≈ 0.251 µM) | 0.39 (≈ 0.489 µM) | < 0.006 | 0.78 (≈ 0.978 µM) | 0.39 (≈ 0.489 µM) | 0.39 (≈ 0.489 µM) | 3.13 (≈ 3.92 µM) | 0.39 (≈ 0.489 µM) | 3.13 (≈ 3.92 µM) | MIC (E. cloacae 1V25): 12.5 µg/mL (≈ 15.7 µM); MIC (E. cloacae 5D52-2): 0.39 µg/mL (≈ 0.489 µM); MIC (E. cloacae 5D63-2): 0.2 µg/mL (≈ 0.251 µM); MIC (C. freundii 1R523): 0.1 µg/mL (≈ 0.125 µM); MIC (C. freundii 1R527): 0.1 µg/mL (≈ 0.125 µM); MIC (E. cloacae 1Y247): 1.56 µg/mL (≈ 1.96 µM); MIC (C. freundii 1R524): 0.1 µg/mL (≈ 0.125 µM); MIC (C. freundii 1R526): 0.1 µg/mL (≈ 0.125 µM)
Cc1nc2nc(C(=O)O)nn2c(SCC2=C(C(=O)O)N3C(=O)C(NC(=O)C(=NOC(C)(C)C(=O)NNC(=O)c4ccc(O)c(O)c4)c4csc(N)n4)C3SC2)c1C (stereo not shown) [Example 41, 7-{2-[2-Amino-1,3-thiazol 4-yl]-2-[1-(3-(3,4-dihydroxybenzoyl)carbazoyl)-1-methylethoxyimino]acetamide}-3-[(2-carboxy-5,6-dimethyl-s-triazolo[1,5-a]pyrimidin-7-yl)-thiomethyl]-3-cephem-4-carboxylic acid.hydrochloride] | < 0.006 | 25 | < 0.006 | 0.39 | 0.1 | 0.2 | 0.39 | < 0.006 | 0.1 | 0.39 | 50 | 0.1 | 0.2 | < 0.006 | 0.39 | 0.05 | 0.05 | 0.39 | 0.1 | 0.2 | MIC (E. cloacae 1V25): 1.56 µg/mL; MIC (E. cloacae 5D52-2): 0.05 µg/mL; MIC (E. cloacae 5D63-2): 0.1 µg/mL; MIC (C. freundii 1R523): 0.025 µg/mL; MIC (C. freundii 1R527): 0.012 µg/mL; MIC (E. cloacae 1Y247): 0.39 µg/mL; MIC (C. freundii 1R524): 0.006 µg/mL; MIC (C. freundii 1R526): 0.025 µg/mL
